From US9434693B2, “Substituted pyrazoles as N-type calcium channel blockers” (Janssen Pharmaceutica NV, priority 2012, dated 2016)
pIC50: −log10 of the molar value. Counter-ions that a name gives are not always drawn.

Biological target: N-type calcium channel (α1B (Cav2.2), β3 and α2δ subunits) in stable HEK cell line (Homo sapiens (Human), UniProt Q00975)
Experiment: Functional assay (FDSS calcium mobilization): antagonism of N-type calcium channel
Format: cell-based
Settings: for pIC50: KCl (50 mM) depolarization, six-point concentration-response; for % Inhibition (%) at 0.33 μM / inhibition at 0.33 µM: FDSS, 0.33 μM compound; for inhibition at 0.33 µM: HEK293
Protocol: A stable cell line (HEK parent) co-expressing the α1B (Cav2.2), β3 and α2δ subunits of the N-type calcium channel subunits was used. These cells were routinely grown as monolayers in low glucose-containing Dulbecco's Modified Eagle Medium supplemented with 10% FBS, 2 mM L-glutamine, 100 I.U./mL penicillin, 100 μg/mL streptomycin, 400 μg/mL G418 and 200 μg/mL Zeocin (split ratio=1:5). Cells were maintained in 5% CO2 at 37° C. Compounds of Formula (I) were prepared as 10 mM stocks in DMSO from neat compound, if available. Otherwise, the 5 or 10 mM DMSO stock solutions provided in-house were used.
Calcium mobilization responses to KCl depolarization were evaluated by measuring the intensity of calcium-mediated fluorescent signal in the presence of BD Calcium Assay Dye (BD Biosciences, Franklin Lakes, N.J., U.S.A.), utilizing a Functional Drug Screening System (FDSS) by Hamamatsu Corporation (Bridgewater, N.J. U.S.A.).
Twenty-four hr prior to assay, cells were seeded in clear-base poly-D-lysine-coated 384-well plates (BD Biosciences) at a density of 5,000 cells per well in culture medium and grown overnight in 5% CO2 at 37° C. On the day of assay, growth media were removed, and cells were loaded with BD calcium assay dye (BD Biosciences) for 35 min at 37° C. under 5% CO2 and then for 25 min at room temp. Utilizing the FDSS, cells were exposed to representative compounds of Formula (I) at varying concentrations, and intracellular calcium was measured for 5 min prior to the addition of 50 mM KCl for an additional 3 min of measurement.
IC50 values for representative compounds of Formula (I) were determined from six-point concentration-response experiments and represent the concentration of said compound required to inhibit 50% of the maximal response. Maximal fluorescence intensity (FI) achieved upon addition of 50 mM KCl was exported from the FDSS software and further analyzed using GraphPad Prism 3.02 (Graph Pad Software Inc., San Diego, Calif., U.S.A.). Data were normalized to the maximum average counts from quadruplicate wells for each condition in the presence of 50 mM KCl and to the minimum average counts in the presence of buffer. Theoretical curves were generated using nonlinear regression curve-fitting analysis of either sigmoidal concentration-response or sigmoidal concentration-response (variable slope), and the IC50 values with the best-fit curve determined by GraphPad Prism were reported.

Chain of N-type calcium channel (α1B (Cav2.2), β3 and α2δ subunits) in stable HEK cell line (Q00975 whole entry): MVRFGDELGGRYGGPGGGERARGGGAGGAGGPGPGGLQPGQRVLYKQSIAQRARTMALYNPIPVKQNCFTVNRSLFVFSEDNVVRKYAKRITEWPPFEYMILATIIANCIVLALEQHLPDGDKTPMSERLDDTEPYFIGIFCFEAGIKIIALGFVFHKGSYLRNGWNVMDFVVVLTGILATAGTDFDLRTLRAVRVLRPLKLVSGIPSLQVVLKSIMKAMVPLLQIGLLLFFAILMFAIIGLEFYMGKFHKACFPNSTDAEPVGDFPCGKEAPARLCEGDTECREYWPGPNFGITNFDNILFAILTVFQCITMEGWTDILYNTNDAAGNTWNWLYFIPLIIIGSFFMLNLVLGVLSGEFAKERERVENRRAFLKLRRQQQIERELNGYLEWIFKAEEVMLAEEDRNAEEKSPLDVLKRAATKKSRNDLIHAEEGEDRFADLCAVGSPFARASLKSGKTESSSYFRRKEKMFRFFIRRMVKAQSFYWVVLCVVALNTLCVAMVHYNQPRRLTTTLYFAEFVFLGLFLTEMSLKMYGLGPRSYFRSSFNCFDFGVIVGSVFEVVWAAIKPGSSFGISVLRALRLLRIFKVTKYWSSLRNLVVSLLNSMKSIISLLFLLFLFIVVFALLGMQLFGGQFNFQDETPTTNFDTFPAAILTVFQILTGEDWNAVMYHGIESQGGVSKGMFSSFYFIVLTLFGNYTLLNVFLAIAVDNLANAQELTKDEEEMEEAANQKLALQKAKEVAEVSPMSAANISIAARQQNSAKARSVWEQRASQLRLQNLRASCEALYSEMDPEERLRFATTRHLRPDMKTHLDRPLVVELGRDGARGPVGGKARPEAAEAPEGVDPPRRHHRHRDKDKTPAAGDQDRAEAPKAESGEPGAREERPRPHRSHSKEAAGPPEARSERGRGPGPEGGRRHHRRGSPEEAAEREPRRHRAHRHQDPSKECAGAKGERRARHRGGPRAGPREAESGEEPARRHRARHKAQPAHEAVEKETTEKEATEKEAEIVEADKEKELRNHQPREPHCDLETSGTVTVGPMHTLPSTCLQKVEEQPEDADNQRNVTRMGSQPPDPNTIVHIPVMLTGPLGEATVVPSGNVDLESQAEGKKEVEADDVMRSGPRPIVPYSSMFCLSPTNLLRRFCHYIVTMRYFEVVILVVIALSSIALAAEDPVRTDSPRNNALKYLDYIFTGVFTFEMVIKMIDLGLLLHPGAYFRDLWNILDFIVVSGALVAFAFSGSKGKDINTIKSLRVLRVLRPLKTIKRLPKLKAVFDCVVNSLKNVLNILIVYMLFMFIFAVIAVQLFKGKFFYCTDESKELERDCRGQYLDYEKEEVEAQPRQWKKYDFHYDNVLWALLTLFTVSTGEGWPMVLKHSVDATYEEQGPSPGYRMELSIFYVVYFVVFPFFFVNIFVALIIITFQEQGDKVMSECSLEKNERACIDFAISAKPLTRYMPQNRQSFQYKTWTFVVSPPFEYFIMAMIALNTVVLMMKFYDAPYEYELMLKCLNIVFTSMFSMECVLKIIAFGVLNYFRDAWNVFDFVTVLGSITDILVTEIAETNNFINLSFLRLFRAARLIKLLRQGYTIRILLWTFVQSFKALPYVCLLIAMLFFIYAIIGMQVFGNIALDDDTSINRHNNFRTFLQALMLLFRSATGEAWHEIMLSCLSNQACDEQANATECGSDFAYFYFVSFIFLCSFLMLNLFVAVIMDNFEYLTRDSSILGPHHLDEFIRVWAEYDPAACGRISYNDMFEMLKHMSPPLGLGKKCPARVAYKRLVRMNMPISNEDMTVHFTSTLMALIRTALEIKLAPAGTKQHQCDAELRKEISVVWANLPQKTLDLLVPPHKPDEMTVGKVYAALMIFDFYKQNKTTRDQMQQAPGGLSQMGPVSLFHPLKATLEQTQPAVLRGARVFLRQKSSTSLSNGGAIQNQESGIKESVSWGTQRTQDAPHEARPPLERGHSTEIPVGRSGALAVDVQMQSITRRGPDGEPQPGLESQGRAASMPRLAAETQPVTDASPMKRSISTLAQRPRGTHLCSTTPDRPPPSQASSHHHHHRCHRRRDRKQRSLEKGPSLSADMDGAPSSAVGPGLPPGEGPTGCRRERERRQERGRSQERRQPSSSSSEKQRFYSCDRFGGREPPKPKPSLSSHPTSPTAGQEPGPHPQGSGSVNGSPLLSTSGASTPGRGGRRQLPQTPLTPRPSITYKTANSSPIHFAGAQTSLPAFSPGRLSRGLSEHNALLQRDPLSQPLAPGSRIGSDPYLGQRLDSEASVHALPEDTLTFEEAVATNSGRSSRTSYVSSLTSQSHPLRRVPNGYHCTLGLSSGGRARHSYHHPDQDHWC
Chain of N-type calcium channel (α1B (Cav2.2), β3 and α2δ subunits) in stable HEK cell line (P54284 whole entry partner): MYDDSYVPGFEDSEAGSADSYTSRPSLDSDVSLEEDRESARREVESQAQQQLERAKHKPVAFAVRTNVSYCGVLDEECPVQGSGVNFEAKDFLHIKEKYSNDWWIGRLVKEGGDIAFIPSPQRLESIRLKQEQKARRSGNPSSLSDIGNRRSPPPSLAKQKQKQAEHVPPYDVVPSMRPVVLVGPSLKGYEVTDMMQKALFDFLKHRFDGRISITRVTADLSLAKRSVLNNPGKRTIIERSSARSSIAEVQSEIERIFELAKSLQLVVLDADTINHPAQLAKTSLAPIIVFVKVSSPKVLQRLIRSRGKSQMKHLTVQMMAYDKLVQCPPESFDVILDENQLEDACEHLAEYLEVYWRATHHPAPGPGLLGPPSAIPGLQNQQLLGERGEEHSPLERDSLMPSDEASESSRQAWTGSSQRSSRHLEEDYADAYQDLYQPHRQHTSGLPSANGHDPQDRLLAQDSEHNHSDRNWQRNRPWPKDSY
Chain of N-type calcium channel (α1B (Cav2.2), β3 and α2δ subunits) in stable HEK cell line (P54289 25-1103 partner): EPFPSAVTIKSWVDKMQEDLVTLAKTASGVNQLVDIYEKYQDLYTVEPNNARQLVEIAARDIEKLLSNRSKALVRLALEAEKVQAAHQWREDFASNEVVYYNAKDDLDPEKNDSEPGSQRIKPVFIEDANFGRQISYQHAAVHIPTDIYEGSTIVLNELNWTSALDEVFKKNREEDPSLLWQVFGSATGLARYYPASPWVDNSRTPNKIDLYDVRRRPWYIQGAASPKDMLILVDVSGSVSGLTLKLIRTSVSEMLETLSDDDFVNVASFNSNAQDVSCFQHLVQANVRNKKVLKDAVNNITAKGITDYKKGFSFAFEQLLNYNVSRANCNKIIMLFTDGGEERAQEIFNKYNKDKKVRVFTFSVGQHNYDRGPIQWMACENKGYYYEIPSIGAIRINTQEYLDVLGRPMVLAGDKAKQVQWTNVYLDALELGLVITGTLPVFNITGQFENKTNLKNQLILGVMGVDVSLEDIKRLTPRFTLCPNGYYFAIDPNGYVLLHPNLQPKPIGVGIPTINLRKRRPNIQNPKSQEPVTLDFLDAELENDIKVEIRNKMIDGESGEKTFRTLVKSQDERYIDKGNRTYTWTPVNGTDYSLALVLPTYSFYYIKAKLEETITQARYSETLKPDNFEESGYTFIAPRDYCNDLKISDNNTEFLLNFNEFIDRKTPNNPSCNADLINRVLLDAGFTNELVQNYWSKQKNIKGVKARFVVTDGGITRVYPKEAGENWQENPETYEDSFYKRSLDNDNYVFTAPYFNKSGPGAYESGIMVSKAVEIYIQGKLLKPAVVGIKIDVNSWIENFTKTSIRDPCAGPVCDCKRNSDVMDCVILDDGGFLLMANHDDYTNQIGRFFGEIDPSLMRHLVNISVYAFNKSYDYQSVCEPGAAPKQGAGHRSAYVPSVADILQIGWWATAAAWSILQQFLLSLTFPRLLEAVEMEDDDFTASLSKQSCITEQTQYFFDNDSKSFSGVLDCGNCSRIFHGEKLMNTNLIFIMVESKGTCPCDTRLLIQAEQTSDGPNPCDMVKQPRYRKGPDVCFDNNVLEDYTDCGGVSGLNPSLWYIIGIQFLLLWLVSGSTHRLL

Compound	pIC50	% Inhibition (%) at 0.33 μM [%]	inhibition at 0.33 µM [%]
COc1ccccc1-n1nc(OC2CCN(C(=O)C(F)(F)F)CC2)cc1-c1ccc(Cl)cc1 [Compound 9, 4-{[5-(4-Chlorophenyl)-1-(2-methoxyphenyl)-1H-pyrazol-3-yl]oxy}-1-(trifluoroacetyl)piperidine]	7.50		
COc1ccccc1-n1nc(O[C@H]2CC(C)(C)[S@@+]([O-])C(C)(C)C2)cc1-c1ccc(Cl)cc1.O=C(O)C(F)(F)F [Compound 39, (1 s,4s)-4-((5-(4-chlorophenyl)-1-(2-methoxyphenyl)-1H-pyrazol-3-yl)oxy)-2,2,6,6-tetramethyltetrahydro-2H-thiopyran 1-oxide trifluoroacetate]	8.82	99	
COc1ccccc1-n1nc(OC2CN(C(=O)OC(C)(C)C)C2)cc1-c1ccc(Cl)cc1 [Compound 22, tert-Butyl 3-{[5-(4-chlorophenyl)-1-(2-methoxyphenyl)-1H-pyrazol-3-yl]oxy}azetidine-1-carboxylate]	7.17		90
COc1ccccc1-n1nc(OC2CCN(C(=O)OC(C)(C)C)CC2)cc1-c1ccc(Cl)cc1 [Compound 1, tert-Butyl 4-{[5-(4-chlorophenyl)-1-(2-methoxyphenyl)-1H-pyrazol-3-yl]oxy}piperidine-1-carboxylate]	7.52		
COc1ccccc1-n1nc(O[C@H]2CC(C)(C)[S@+]([O-])C(C)(C)C2)cc1-c1ccc(Cl)cc1.O=C(O)C(F)(F)F [Compound 38, (1r,4r)-4-((5-(4-chlorophenyl)-1-(2-methoxyphenyl)-1H-pyrazol-3-yl)oxy)-2,2,6,6-tetramethyltetrahydro-2H-thiopyran 1-oxide trifluoroacetate]	8.57	98	
COc1ccccc1-n1nc(OC2CC(C)(C)SC(C)(C)C2)cc1-c1ccc(Cl)cc1 [Compound 36, 5-(4-Chlorophenyl)-1-(2-methoxyphenyl)-3-[(2,2,6,6-tetramethyltetrahydro-2H-thiopyran-4-yl)oxy]-1H-pyrazole]	8.23		91
COc1ccccc1-n1nc(OC2CCC(F)(F)CC2)cc1-c1ccc(Cl)cc1 [Compound 16, 5-(4-Chlorophenyl)-3-[(4,4-difluorocyclohexyl)oxy]-1-(2-methoxyphenyl)-1H-pyrazole]	7.39		
COc1ccccc1-n1nc(OC2CCN(CC(F)(F)F)CC2)cc1-c1ccc(Cl)cc1 [Compound 8, 4-{[5-(4-Chlorophenyl)-1-(2-methoxyphenyl)-1H-pyrazol-3-yl]oxy}-1-(2,2,2-trifluoroethyl)piperidine]	7.51		
COc1ccccc1-n1nc(O[C@H]2CC[C@@H](N)CC2)cc1-c1ccc(Cl)cc1 [Compound 12, cis-4-{[5-(4-Chlorophenyl)-1-(2-methoxyphenyl)-1H-pyrazol-3-yl]oxy}cyclohexanamine trifluoroacetate]	6.40		
COc1ccc(-c2cc(O[C@H]3CC(C)(C)[S@+]([O-])C(C)(C)C3)nn2-c2ccccc2OC)cc1 [Compound 34, (1r,4r)-4-((1-(2-methoxyphenyl)-5-(4-methoxyphenyl)-1H-pyrazol-3-yl)oxy)-2,2,6,6-tetramethyltetrahydro-2H-thiopyran 1-oxide]	8.35	94	
CC(C)(C)Oc1ccccc1-n1nc(OC2CCN(S(C)(=O)=O)CC2)cc1-c1ccc(Cl)cc1 [Compound 24, 4-{[1-(2-tert-Butoxyphenyl)-5-(4-chlorophenyl)-1H-pyrazol-3-yl]oxy}-1-(methylsulfonyl)piperidine]			57
COc1ccccc1-n1nc(O[C@H]2CC[C@@H](NC(=O)OC(C)(C)C)CC2)cc1-c1ccc(Cl)cc1 [Compound 11, tert-Butyl (cis-4-{[5-(4-chlorophenyl)-1-(2-methoxyphenyl)-1H-pyrazol-3-yl]oxy}cyclohexyl)carbamate]	7.21		
COc1ccccc1-n1nc(OC2CCN(C(C)=O)CC2)cc1-c1ccc(Cl)cc1 [Compound 3, 1-Acetyl-4-{[5-(4-chlorophenyl)-1-(2-methoxyphenyl)-1H-pyrazol-3-yl]oxy}piperidine]	7.59		
COc1ccc(-c2cc(OC3CC(C)(C)S(=O)(=O)C(C)(C)C3)nn2-c2ccccc2OC)cc1 [Compound 33, 1-(2-Methoxyphenyl)-5-(4-methoxyphenyl)-3-[(2,2,6,6-tetramethyl-1,1-dioxidotetrahydro-2H-thiopyran-4-yl)oxy]-1H-pyrazole]	8.52		94
COc1ccccc1-n1nc(OC2CCN(S(C)(=O)=O)CC2)cc1-c1ccc(Cl)cc1 [Compound 5, 4-{[5-(4-Chlorophenyl)-1-(2-methoxyphenyl)-1H-pyrazol-3-yl]oxy}-1-(methylsulfonyl)piperidine]	7.82		
COc1ccc(-c2cc(OC3CC(C)(C)SC(C)(C)C3)nn2-c2ccccc2OC)cc1 [Compound 32, 1-(2-Methoxyphenyl)-5-(4-methoxyphenyl)-3-[(2,2,6,6-tetramethyltetrahydro-2H-thiopyran-4-yl)oxy]-1H-pyrazole]	8.22		93
COc1ccccc1-n1nc(OC2CC(C)(C)C(O)C(C)(C)C2)cc1-c1ccc(Cl)cc1 (stereo not drawn) [Compound 42, 4-{[5-(4-Chlorophenyl)-1-(2-methoxyphenyl)-1H-pyrazol-3-yl]oxy}-2,2,6,6-tetramethylcyclohexanol]	7.41		78
COc1ccccc1-n1nc(OC2CN(S(=O)(=O)C(C)C)C2)cc1-c1ccc(Cl)cc1 [Compound 25, 5-(4-Chlorophenyl)-1-(2-methoxyphenyl)-3-({1-[(1-methylethyl)sulfonyl]azetidin-3-yl}oxy)-1H-pyrazole]	7.44		92
COc1ccccc1-n1nc(OC2CCC(=O)CC2)cc1-c1ccc(Cl)cc1 [Compound 2, 4-{[5-(4-Chlorophenyl)-1-(2-methoxyphenyl)-1H-pyrazol-3-yl]oxy}cyclohexanone]	7.55		
COc1ccccc1-n1nc(OC2CCN(C(=O)N(C)C)CC2)cc1-c1ccc(Cl)cc1 [Compound 4, 4-{[5-(4-Chlorophenyl)-1-(2-methoxyphenyl)-1H-pyrazol-3-yl]oxy}-N,N-dimethylpiperidine-1-carboxamide]	7.85		
COc1ccccc1-n1nc(OC2CCOCC2)cc1-c1ccc(Cl)cc1 [Compound 6, 5-(4-Chlorophenyl)-1-(2-methoxyphenyl)-3-(tetrahydro-2H-pyran-4-yloxy)-1H-pyrazole]	7.82		98
COc1ccccc1-n1nc(OCC2C(C)(C)OC2(C)C)cc1-c1ccc(Cl)cc1 [Compound 40]	8.51		95
CC(C)Oc1ccccc1-n1nc(OC2CCN(S(=O)(=O)C(C)C)CC2)cc1-c1ccc(Cl)cc1 [Compound 28, 4-({5-(4-Chlorophenyl)-1-[2-(1-methylethoxy)phenyl]-1H-pyrazol-3-yl}oxy)-1-[(1-methylethyl)sulfonyl]piperidine]	8.15		96
COc1ccccc1-n1nc(OC2CN(C(=O)c3ccccc3)C2)cc1-c1ccc(Cl)cc1 [Compound 27, 5-(4-Chlorophenyl)-1-(2-methoxyphenyl)-3-{[1-(phenylcarbonyl)azetidin-3-yl]oxy}-1H-pyrazole]	7.07		87
CCc1ccccc1-n1nc(OC2CCN(S(C)(=O)=O)CC2)cc1-c1ccc(Cl)cc1 [Compound 19, 4-{[5-(4-Chlorophenyl)-1-(2-ethylphenyl)-1H-pyrazol-3-yl]oxy}-1-(methylsulfonyl)piperidine]	7.01		
COc1ccccc1-n1nc(O[C@H]2CC[C@@H](NC(=O)C(F)(F)F)CC2)cc1-c1ccc(Cl)cc1 [Compound 13, N-(cis-4-{[5-(4-Chlorophenyl)-1-(2-methoxyphenyl)-1H-pyrazol-3-yl]oxy}cyclohexyl)-2,2,2-trifluoroacetamide]	7.96		
COc1ccccc1-n1nc(OC2CCS(=O)(=O)CC2)cc1-c1ccc(Cl)cc1 [Compound 10, 5-(4-Chlorophenyl)-3-[(1,1-dioxidotetrahydro-2H-thiopyran-4-yl)oxy]-1-(2-methoxyphenyl)-1H-pyrazole]	7.52		
COc1ccccc1-n1nc(OC2CCSCC2)cc1-c1ccc(Cl)cc1 [Compound 7, 5-(4-Chlorophenyl)-1-(2-methoxyphenyl)-3-(tetrahydro-2H-thiopyran-4-yloxy)-1H-pyrazole]	7.55		
CCc1ccccc1-n1nc(OC2CCN(C(=O)OC(C)(C)C)CC2)cc1-c1ccc(Cl)cc1 [Compound 18, tert-Butyl 4-{[5-(4-chlorophenyl)-1-(2-ethylphenyl)-1H-pyrazol-3-yl]oxy}piperidine-1-carboxylate]	7.30		
